Test results as given in article PMC3702004, “Comparison of Intake and Systemic Relative Effect Potencies of Dioxin-like Compounds in Female Mice after a Single Oral Dose” (Environmental Health Perspectives, 2013).
Read-outs that look alike come from different tables or passages of the source.

Legend:
[1] = Body and organ weight, hepatic lipid content; type: in vivo, female C57BL/6 mice; details: day 3; for % lipid / g liver: pooled liver samples
[2] = Compound analysis: liver, adipose and plasma concentrations 3 days after a single oral dose; type: in vivo, female C57BL/6 mice; details: for Liver:adipose ratio: based on ng/g tissue, day 3; for concentration at 3 days: female, C57BL/6, mouse, in vivo, po
[3] = oral dose 0.5 µg/kg bw, 3 days after single oral dose
[4] = oral dose 2.5 µg/kg bw, 3 days after single oral dose
[5] = oral dose 10 µg/kg bw, 3 days after single oral dose
[6] = oral dose 25 µg/kg bw, 3 days after single oral dose
[7] = oral dose 100 µg/kg bw, 3 days after single oral dose

**Q.** For Clc1cc2c(cc1Cl)Oc1cc(Cl)c(Cl)cc1O2 [TCDD, 2,3,7,8-tetrachlorodibenzodioxin, reference compound], which Body weight ([1]; oral dose 0.5 µg/kg bw) is on record?
**A.** 19.3 ± 0.8 gram

**Q.** What about the Liver weight ([1]; oral dose 0.5 µg/kg bw) of the same molecule?
**A.** 5.08 ± 0.27 % of bw

**Q.** And the Spleen weight ([1]; oral dose 0.5 µg/kg bw)?
**A.** 0.34 ± 0.05 % of bw

**Q.** And the Thymus weight ([1]; oral dose 0.5 µg/kg bw)?
**A.** 0.28 ± 0.06 % of bw

**Q.** What about the “% lipid / g liver” value ([1]; oral dose 0.5 µg/kg bw) of the same molecule?
**A.** 5.3%

**Q.** And the Body weight ([1]; oral dose 2.5 µg/kg bw)?
**A.** 19.2 ± 1.3 gram

**Q.** And the Liver weight ([1]; oral dose 2.5 µg/kg bw)?
**A.** 5.37 ± 0.20 % of bw

**Q.** And the Spleen weight ([1]; oral dose 2.5 µg/kg bw)?
**A.** 0.32 ± 0.05 % of bw

**Q.** And the Thymus weight ([1]; oral dose 2.5 µg/kg bw)?
**A.** 0.23 ± 0.05 % of bw

**Q.** And the “% lipid / g liver” value ([1]; oral dose 2.5 µg/kg bw)?
**A.** 7.2%

**Q.** And the Body weight ([1]; oral dose 10 µg/kg bw)?
**A.** 18.8 ± 1.1 gram

**Q.** And the Liver weight ([1]; oral dose 10 µg/kg bw)?
**A.** 5.49 ± 0.37 % of bw

**Q.** What about the Spleen weight ([1]; oral dose 10 µg/kg bw) of the same molecule?
**A.** 0.30 ± 0.04 % of bw

**Q.** What about the Thymus weight ([1]; oral dose 10 µg/kg bw) of the same molecule?
**A.** 0.18 ± 0.06 % of bw

**Q.** What about the “% lipid / g liver” value ([1]; oral dose 10 µg/kg bw) of the same molecule?
**A.** 7.4%

**Q.** What about the Body weight ([1]; oral dose 25 µg/kg bw) of the same molecule?
**A.** 19.6 ± 0.8 gram

**Q.** What about the Liver weight ([1]; oral dose 25 µg/kg bw) of the same molecule?
**A.** 5.86 ± 0.22 % of bw

**Q.** What about the Spleen weight ([1]; oral dose 25 µg/kg bw) of the same molecule?
**A.** 0.34 ± 0.02 % of bw

**Q.** And the Thymus weight ([1]; oral dose 25 µg/kg bw)?
**A.** 0.23 ± 0.02 % of bw

**Q.** And the Body weight ([1]; oral dose 100 µg/kg bw)?
**A.** 19.4 ± 0.6 gram

**Q.** And the Liver weight ([1]; oral dose 100 µg/kg bw)?
**A.** 6.09 ± 0.44 % of bw

**Q.** What about the Spleen weight ([1]; oral dose 100 µg/kg bw) of the same molecule?
**A.** 0.34 ± 0.02 % of bw

**Q.** And the Thymus weight ([1]; oral dose 100 µg/kg bw)?
**A.** 0.19 ± 0.04 % of bw

**Q.** And the “Dose with significant increase in liver weight vs vehicle controls” value ([1]; single oral dose)?
**A.** ≥ 10 µg/kg BW

**Q.** What about the “Dose with statistically significant decrease in relative thymus weight vs vehicle controls” value ([1]; single oral dose) of the same molecule?
**A.** ≥ 2.5 μg/kg BW

**Q.** What about the “liver:adipose ratio (hepatic sequestration criterion 0.3)” value ([2]; 3 days after single oral dose, Table 1 doses) of the same molecule?
**A.** > 0.3

**Q.** What about the “Liver:adipose ratio” value ([2]; dose 0.5 μg/kg BW) of the same molecule?
**A.** 1.8±0.2

**Q.** What about the “Liver:adipose ratio” value ([2]; dose 2.5 μg/kg BW) of the same molecule?
**A.** 2.9±0.5

**Q.** And the “Liver:adipose ratio” value ([2]; dose 10 μg/kg BW)?
**A.** 4.2±0.7

**Q.** What about the concentration at 3 days ([2]; 0.5 µg/kg bw, oral dose 0.5 µg/kg bw, 3 days after single oral dose, read-out: Adipose concentration) of the same molecule?
**A.** 1.8 ± 0.4 ng/g

**Q.** What about the concentration at 3 days ([2]; 0.5 µg/kg bw, oral dose 0.5 µg/kg bw, 3 days after single oral dose, read-out: Liver concentration) of the same molecule?
**A.** 3.3 ± 0.6 ng/g

**Q.** What about the concentration at 3 days ([2]; 2.5 µg/kg bw, oral dose 2.5 µg/kg bw, 3 days after single oral dose, read-out: Adipose concentration) of the same molecule?
**A.** 6.9 ± 1.5 ng/g

**Q.** What about the concentration at 3 days ([2]; 2.5 µg/kg bw, oral dose 2.5 µg/kg bw, 3 days after single oral dose, read-out: Liver concentration) of the same molecule?
**A.** 20 ± 6 ng/g

**Q.** And the concentration at 3 days ([2]; 10 µg/kg bw, oral dose 10 µg/kg bw, 3 days after single oral dose, read-out: Adipose concentration)?
**A.** 21 ± 3 ng/g

**Q.** And the concentration at 3 days ([2]; 10 µg/kg bw, oral dose 10 µg/kg bw, 3 days after single oral dose, read-out: Liver concentration)?
**A.** 85 ± 13 ng/g

**Q.** What about the concentration at 3 days ([2]; 10 µg/kg bw, oral dose 10 µg/kg bw, 3 days after single oral dose, read-out: Plasma concentration) of the same molecule?
**A.** 0.053 ng/g

**Q.** And the concentration at 3 days ([2]; 25 µg/kg bw, oral dose 25 µg/kg bw, 3 days after single oral dose, read-out: Plasma concentration)?
**A.** 0.108 ng/g

**Q.** And the concentration at 3 days ([2]; 100 µg/kg bw, oral dose 100 µg/kg bw, 3 days after single oral dose, read-out: Plasma concentration)?
**A.** 0.432 ng/g

**Q.** What about the “Adipose % dose / g tissue” value [2, 3] of the same molecule?
**A.** 18 % dose / g tissue

**Q.** And the Adipose concentration [2, 3]?
**A.** 2.1 ± 0.5 ng/g lipid

**Q.** What about the “Liver % dose / g tissue” value [2, 3] of the same molecule?
**A.** 33 % dose / g tissue

**Q.** And the Liver concentration [2, 3]?
**A.** 62 ± 12 ng/g lipid

**Q.** What about the “Plasma % dose / g tissue” value [2, 3] of the same molecule?
**A.** 0.040 % dose / g tissue

**Q.** And the “Adipose % dose / g tissue” value [2, 4]?
**A.** 14 % dose / g tissue

**Q.** And the Adipose concentration [2, 4]?
**A.** 7.6 ± 1.7 ng/g lipid

**Q.** And the “Liver % dose / g tissue” value [2, 4]?
**A.** 40 % dose / g tissue

**Q.** And the Liver concentration [2, 4]?
**A.** 277 ± 83 ng/g lipid

**Q.** And the “Plasma % dose / g tissue” value [2, 4]?
**A.** 0.027 % dose / g tissue

**Q.** What about the “Adipose % dose / g tissue” value [2, 5] of the same molecule?
**A.** 10 % dose / g tissue

**Q.** And the Adipose concentration [2, 5]?
**A.** 24 ± 4 ng/g lipid

**Q.** What about the “Liver % dose / g tissue” value [2, 5] of the same molecule?
**A.** 43 % dose / g tissue

**Q.** What about the Liver concentration [2, 5] of the same molecule?
**A.** 1152 ± 176 ng/g lipid

**Q.** And the “Plasma % dose / g tissue” value [2, 5]?
**A.** 0.027 % dose / g tissue

**Q.** What about the Plasma concentration [2, 5] of the same molecule?
**A.** 35 ± 6 ng/g lipid

**Q.** What about the “Plasma % dose / g tissue” value [2, 6] of the same molecule?
**A.** 0.022 % dose / g tissue

**Q.** What about the Plasma concentration [2, 6] of the same molecule?
**A.** 60 ± 3 ng/g lipid

**Q.** What about the “Plasma % dose / g tissue” value [2, 7] of the same molecule?
**A.** 0.022 % dose / g tissue

**Q.** What about the Plasma concentration [2, 7] of the same molecule?
**A.** 240 ± 30 ng/g lipid
